Measured values published in patent US20240174634A1, “Aldehyde Dehydrogenase Inhibitors and Their Therapeutic Use” (priority 2020, published 2024).
pIC50: −log10 of the molar value.

How the values were obtained:
ALDH1A1 = target: T1, ALDH1A1 (Homo sapiens, UniProt P00352); experiment: Selectivity biochemical assay, NAD(P)H-Glo Detection System
T1 construct: His-tag; made in house; host or cells: E. coli Rosetta (DE3)
T1 sequence (P00352 1-501): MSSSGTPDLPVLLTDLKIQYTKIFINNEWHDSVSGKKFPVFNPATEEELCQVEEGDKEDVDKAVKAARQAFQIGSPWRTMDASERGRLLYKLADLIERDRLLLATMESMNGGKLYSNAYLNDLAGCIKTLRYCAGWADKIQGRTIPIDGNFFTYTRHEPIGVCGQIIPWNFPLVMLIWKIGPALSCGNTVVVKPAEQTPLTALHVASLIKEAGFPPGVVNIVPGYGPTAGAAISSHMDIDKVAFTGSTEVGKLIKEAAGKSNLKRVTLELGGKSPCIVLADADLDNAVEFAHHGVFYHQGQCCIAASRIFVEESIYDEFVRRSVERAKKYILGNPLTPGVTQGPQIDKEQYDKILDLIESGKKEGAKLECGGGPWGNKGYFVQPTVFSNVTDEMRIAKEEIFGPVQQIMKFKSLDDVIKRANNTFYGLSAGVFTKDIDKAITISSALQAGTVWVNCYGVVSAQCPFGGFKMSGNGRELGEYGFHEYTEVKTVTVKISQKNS
Procedure, shortened: (§1)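 Recombinant full-length His-tagged human enzymes expressed in E. coli were pre-incubated 30 min at room temperature with compound (10-point, 3-fold series; top 20 μM for ALDH1A3, 250 μM for ALDH1A1/1A2). Propionaldehyde and NAD were then added at Km; NADH was read by NAD(P)H-Glo luminescence. Buffer: Tris (pH 7.6 for 1A1/1A2, 9.0 for 1A3), 1 mM TCEP, 0.01% Tween-20.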

ALDH1A2 = target: T2, ALDH1A2 (Homo sapiens, UniProt O94788); experiment: as above
T2 construct: His-tag; made in house; host or cells: E. coli Rosetta (DE3)
T2 sequence (O94788 1-518): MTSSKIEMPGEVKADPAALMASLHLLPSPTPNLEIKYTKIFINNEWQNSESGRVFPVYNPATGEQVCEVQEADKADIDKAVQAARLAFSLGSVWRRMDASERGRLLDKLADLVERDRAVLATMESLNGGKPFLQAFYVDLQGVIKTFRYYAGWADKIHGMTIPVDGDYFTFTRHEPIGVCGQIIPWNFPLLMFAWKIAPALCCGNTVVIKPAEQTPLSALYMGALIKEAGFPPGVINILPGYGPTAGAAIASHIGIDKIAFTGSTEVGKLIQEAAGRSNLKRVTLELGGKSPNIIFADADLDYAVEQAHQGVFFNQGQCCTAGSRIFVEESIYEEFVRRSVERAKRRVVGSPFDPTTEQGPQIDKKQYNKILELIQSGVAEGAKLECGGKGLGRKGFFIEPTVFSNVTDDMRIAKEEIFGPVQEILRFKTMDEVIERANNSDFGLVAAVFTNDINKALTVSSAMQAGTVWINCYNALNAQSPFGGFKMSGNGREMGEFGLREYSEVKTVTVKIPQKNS
Procedure, shortened: as §1

Row | Structure (SMILES) | pIC50 (ALDH1A1) | pIC50 (ALDH1A2)
1 | O=C1CSc2cc(OCCN3CCCC3c3ccncc3)ccc2N1 (stereo not shown) [ALDHI-2029, 7-[2-[2-(4-pyridyl)pyrrolidin-1-yl]ethoxy]-4H-1,4-benzothiazin-3-one] | ≤ 4.00 | 4.00 to 5.00
2 | Cc1ccc(C2CCCN2CCOc2ccc3c(c2)CCC(=O)N3)cn1 (stereo not shown) [ALDHI-2030, 6-[2-[2-(6-methyl-3-pyridyl)pyrrolidin-1-yl]ethoxy]-3,4-dihydro-1H-quinolin-2-one] | ≤ 4.00 | 4.00 to 5.00
3 | O=C1CCc2cc(OCCN3CCOCC3c3cccc(F)c3)ccc2N1 (stereo not shown) [ALDHI-2031, 6-[2-[3-(3-fluorophenyl)morpholin-4-yl]ethoxy]-3,4-dihydro-1H-quinolin-2-one] | ≤ 4.00 | 6.00 to 7.00
4 | O=C1CCc2cc(OCCN3CCCC3c3cc(F)cc(F)c3)ccc2N1 (stereo not shown) [ALDHI-2032, 6-[2-[2-(3,5-difluorophenyl)pyrrolidin-1-yl]ethoxy]-3,4-dihydro-1H-quinolin-2-one] | 4.00 to 5.00 | 6.00 to 7.00
5 | Cc1nc(C2CCCN2CCOc2ccc3c(c2)CCC(=O)N3)cs1 (stereo not shown) [ALDHI-2033, 6-[2-[2-(2-methylthiazol-4-yl)pyrrolidin-1-yl]ethoxy]-3,4-dihydro-1H-quinolin-2-one] | ≤ 4.00 | ≤ 4.00
6 | COc1cccc(C2CCCN2CCOc2ccc3c(c2)CCC(=O)N3)c1 (stereo not shown) [ALDHI-2034, 6-[2-[2-(3-methoxyphenyl)pyrrolidin-1-yl]ethoxy]-3,4-dihydro-1H-quinolin-2-one] | ≤ 4.00 | 4.00 to 5.00
7 | CC1(c2cccc(F)c2)CCCN1CCOc1ccc2c(c1)CCC(=O)N2 (stereo not shown) [ALDHI-2037, 6-[2-[2-(3-fluorophenyl)-2-methyl-pyrrolidin-1-yl]ethoxy]-3,4-dihydro-1H-quinolin-2-one] | ≤ 4.00 | 6.00 to 7.00
8 | O=C1CCc2cc(OCCN3CCCCC3c3cccc(F)c3)ccc2N1 (stereo not shown) [ALDHI-2038, 6-[2-[2-(3-fluorophenyl)-1-piperidyl]ethoxy]-3,4-dihydro-1H-quinolin-2-one] | 4.00 to 5.00 | 5.00 to 6.00
9 | O=C1CCc2cc(OCCN3CCCC3c3ccc(F)c(F)c3)ccc2N1 (stereo not shown) [ALDHI-2039, 6-[2-[2-(3,4-difluorophenyl)pyrrolidin-1-yl]ethoxy]-3,4-dihydro-1H-quinolin-2-one] | 5.00 to 6.00 | 5.00 to 6.00
10 | CC1(c2ccccc2)COCCN1CCOc1ccc2c(c1)CCC(=O)N2 (stereo not shown) [ALDHI-2040, 6-[2-(3-methyl-3-phenyl-morpholin-4-yl)ethoxy]-3,4-dihydro-1H-quinolin-2-one] | ≤ 4.00 | 6.00 to 7.00
11 | O=C1CCc2cc(OCCn3ccnc3-c3ccccc3)ccc2N1 [ALDHI-2041, 6-[2-(2-phenylimidazol-1-yl)ethoxy]-3,4-dihydro-1H-quinolin-2-one] | ≤ 4.00 | 5.00 to 6.00
12 | CC1(C)Oc2cc(OCCN3CCCC3c3cccc(F)c3)ccc2NC1=O (stereo not shown) [ALDHI-2043, 7-[2-[2-(3-fluorophenyl)pyrrolidin-1-yl]ethoxy]-2,2-dimethyl-4H-1,4-benzoxazin-3-one] | ≤ 4.00 | 5.00 to 6.00
13 | CC1Oc2cc(OCCN3CCCC3c3cccc(F)c3)ccc2NC1=O (stereo not shown) [ALDHI-2044, 7-[2-[2-(3-fluorophenyl)pyrrolidin-1-yl]ethoxy]-2-methyl-4H-1,4-benzoxazin-3-one] | ≤ 4.00 | 4.00 to 5.00
14 | CCC1Oc2cc(OCCN3CCCC3c3cccc(F)c3)ccc2NC1=O (stereo not shown) [ALDHI-2045, 2-ethyl-7-[2-[2-(3-fluorophenyl)pyrrolidin-1-yl]ethoxy]-4H-1,4-benzoxazin-3-one] | ≤ 4.00 | 5.00 to 6.00
15 | CC1Cc2cc(OCCN3CCCC3c3cccc(F)c3)ccc2NC1=O (stereo not shown) [ALDHI-2048, 6-[2-[2-(3-fluorophenyl)pyrrolidin-1-yl]ethoxy]-3-methyl-3,4-dihydro-1H-quinolin-2-one] | 4.00 to 5.00 | 6.00 to 7.00
16 | O=C1CCc2cc(OCCN3CCCC3c3cccc(F)c3)c(F)cc2N1 (stereo not shown) [ALDHI-2050, 7-fluoro-6-[2-[2-(3-fluorophenyl)pyrrolidin-1-yl]ethoxy]-3,4-dihydro-1H-quinolin-2-one] | ≤ 4.00 | 5.00 to 6.00
17 | O=C1CCc2cc(OCCN3C(=O)CCC3c3ccccc3)ccc2N1 (stereo not shown) [ALDHI-2051, 6-[2-(2-oxo-5-phenyl-pyrrolidin-1-yl)ethoxy]-3,4-dihydro-1H-quinolin-2-one] | ≤ 4.00 | 5.00 to 6.00
18 | O=C1CCc2cc(OCCN3CC(F)CC3c3cccc(F)c3)ccc2N1 (stereo not shown) [ALDHI-2052, 6-[2-[4-fluoro-2-(3-fluorophenyl)pyrrolidin-1-yl]ethoxy]-3,4-dihydro-1H-quinolin-2-one] | ≤ 4.00 | 6.00 to 7.00
19 | O=C1CCc2cc(OCCN3CC(F)(F)CC3c3cccc(F)c3)ccc2N1 (stereo not shown) [ALDHI-2053, 6-[2-[4,4-difluoro-2-(3-fluorophenyl)pyrrolidin-1-yl]ethoxy]-3,4-dihydro-1H-quinolin-2-one] | ≤ 4.00 | 5.00 to 6.00
20 | CN(CCOc1ccc2c(c1)CCC(=O)N2)Cc1cccc(F)c1 [ALDHI-3001, 6-[2-[(3-fluorophenyl)methyl-methyl-amino]ethoxy]-3,4-dihydro-1H-quinolin-2-one] | ≤ 4.00 | 5.00 to 6.00
21 | O=C1CCc2cc(OCCN(CCO)Cc3cccc(F)c3)ccc2N1 [ALDHI-3002, 6-[2-[(3-fluorophenyl)methyl-(2-hydroxyethyl)amino]ethoxy]-3,4-dihydro-1H-quinolin-2-one] | ≤ 4.00 | 6.00 to 7.00
22 | CN(CCOc1ccc2c(c1)CCC(=O)N2)C(CO)c1cccc(F)c1 (stereo not shown) [ALDHI-3003, 6-[2-[[1-(3-fluorophenyl)-2-hydroxy-ethyl]-methyl-amino]ethoxy]-3,4-dihydro-1H-quinolin-2-one] | ≤ 4.00 | 5.00 to 6.00
23 | CCN(CC)CCN(CCOc1ccc2c(c1)CCC(=O)N2)Cc1ccccc1 [ALDHI-3004, 6-[2-[benzyl-[2-(diethylamino)ethyl]amino]ethoxy]-3,4-dihydro-1H-quinolin-2-one] | ≤ 4.00 | 5.00 to 6.00
24 | O=C1CCc2cc(OCCN(CCO)Cc3cccnc3)ccc2N1 [ALDHI-3005, 6-[2-[2-hydroxyethyl(3-pyridylmethyl)amino]ethoxy]-3,4-dihydro-1H-quinolin-2-one] | ≤ 4.00 | 4.00 to 5.00
25 | C[C@H](c1ccccc1)N(CCO)CCOc1ccc2c(c1)CCC(=O)N2 [ALDHI-3006, 6-[2-[2-hydroxyethyl-[(1R)-1-phenylethyl]amino]ethoxy]-3,4-dihydro-1H-quinolin-2-one] | 4.00 to 5.00 | 5.00 to 6.00
26 | C[C@@H](c1ccccc1)N(CCO)CCOc1ccc2c(c1)CCC(=O)N2 [ALDHI-3007, 6-[2-[2-hydroxyethyl-[(1S)-1-phenylethyl]amino]ethoxy]-3,4-dihydro-1H-quinolin-2-one] | 4.00 to 5.00 | 5.00 to 6.00
27 | CN(CCOc1ccc2c(c1)CCC(=O)N2)C(=O)c1cccc(F)c1 [ALDHI-3008, 3-fluoro-N-methyl-N-[2-[(2-oxo-3,4-dihydro-1H-quinolin-6-yl)oxy]ethyl]benzamide] | ≤ 4.00 | 5.00 to 6.00
28 | CN(CCOc1ccc2c(c1)CCC(=O)N2)Cc1cccnc1 [ALDHI-3010, 6-[2-[methyl(3-pyridylmethyl)amino]ethoxy]-3,4-dihydro-1H-quinolin-2-one] | 4.00 to 5.00 | 4.00 to 5.00
29 | CN(CCOc1ccc2c(c1)CCC(=O)N2)C(=O)c1cccnc1 [ALDHI-3013, N-methyl-N-[2-[(2-oxo-3,4-dihydro-1H-quinolin-6-yl)oxy]ethyl]pyridine-3-carboxamide] | ≤ 4.00 | ≤ 4.00
